How the values were obtained:
[1] = system: T25: single-strain DNA chain, comprising 25 Thymines; experiment: Fluorescence N*/T* ratio vs DNA concentration, T25; conditions: T25 added to 3-HFNMe3 in ultra pure water
Description: T25: A single-strain DNA chain, comprising 25 Thymines
(§1) Fluorescence emission was then recorded after each addition the DNA solution (2 μl, 20 nmol/ml). The ratio of N* and T* bands was calculated and a graph, having N*/T* ratio vs DNA concentration was plotted.

[2] = system: C25: single-strain DNA chain, comprising 25 Cytosines; experiment: Fluorescence N*/T* ratio vs DNA concentration, C25; conditions: C25 added to 3-HFNMe3 in ultra pure water
Description: C25: A single-strain DNA chain, comprising 25 Cytosines
as §1

single-strain DNA chains = experiment: Fluorescence measurements on gradual addition of DNA solution; conditions: ultra pure water; DNA solution added in 2 μl portions (20 nmol/ml)
Description: as §1

“N-(3-hydroxy-4′-flavonyl)-N,N,N-trimethylammonium sulphate [3-HFNMe3]” was tested, and the “N*/T* curve, rank among DNA chains” value [1] was “lowest”, the “N*/T* curve, rank among DNA chains” value [2] was “highest” and the “effect of DNA addition on fluorescence emission” value (single-strain DNA chains) was “ratiometric quenching of particularly the N* band”.
